Test results: the NIST ThermoML archive (doi:10.1021/je200213h)

Legend:
[1] = 101.33 kPa, Liquid, Capillary tube (Ostwald / Ubbelohde) method
[2] = xn = mol fraction of the nth substance listed; settings: 101 kPa, Liquid, Capillary tube (Ostwald / Ubbelohde) method

CC(C)CCl [1-chloro-2-methylpropane]
[1]
Settings | kinematic viscosity [m2/s]
283.15 K | 5.8e-07
298.15 K | 4.929e-07
313.15 K | 4.363e-07

CC(C)CCl [1-chloro-2-methylpropane] + CCC(C)CC
kinematic viscosity [m2/s], [2]
Settings | 283.15 K | 298.15 K | 313.15 K
x2 = 0.0522 | 5.703e-07 | 4.87e-07 | 4.322e-07
x2 = 0.1013 | 5.618e-07 | 4.823e-07 | 4.275e-07
x2 = 0.2024 | 5.464e-07 | 4.717e-07 | 4.187e-07
x2 = 0.3032 | 5.324e-07 | 4.631e-07 | 4.113e-07
x2 = 0.4028 | 5.212e-07 | 4.55e-07 | 4.048e-07
x2 = 0.5056 | 5.115e-07 | 4.484e-07 | 3.994e-07
x2 = 0.604 | 5.043e-07 | 4.43e-07 | 3.951e-07
x2 = 0.7018 | 4.988e-07 | 4.396e-07 | 3.918e-07
x2 = 0.8002 | 4.949e-07 | 4.37e-07 | 3.896e-07
x2 = 0.898 | 4.93e-07 | 4.357e-07 | 3.881e-07
x2 = 0.9486 | 4.927e-07 | 4.355e-07 | 3.879e-07

CC(C)CCl [1-chloro-2-methylpropane] + CCCCCC
kinematic viscosity [m2/s], [2]
Settings | 283.15 K | 298.15 K | 313.15 K
x2 = 0.0512 | 5.712e-07 | 4.863e-07 | 4.32e-07
x2 = 0.0999 | 5.631e-07 | 4.817e-07 | 4.282e-07
x2 = 0.2003 | 5.468e-07 | 4.711e-07 | 4.196e-07
x2 = 0.2993 | 5.339e-07 | 4.633e-07 | 4.128e-07
x2 = 0.4005 | 5.239e-07 | 4.566e-07 | 4.077e-07
x2 = 0.4977 | 5.171e-07 | 4.517e-07 | 4.041e-07
x2 = 0.598 | 5.12e-07 | 4.478e-07 | 4.017e-07
x2 = 0.6993 | 5.089e-07 | 4.462e-07 | 4.01e-07
x2 = 0.799 | 5.077e-07 | 4.455e-07 | 4.002e-07
x2 = 0.8967 | 5.092e-07 | 4.457e-07 | 4.006e-07
x2 = 0.9472 | 5.103e-07 | 4.474e-07 | 4.023e-07

CC(C)CCl [1-chloro-2-methylpropane] + CCCCCCC
kinematic viscosity [m2/s], [2]
Settings | 283.15 K | 298.15 K | 313.15 K
x2 = 0.0507 | 5.818e-07 | 4.95e-07 | 4.381e-07
x2 = 0.0979 | 5.817e-07 | 4.97e-07 | 4.396e-07
x2 = 0.2004 | 5.851e-07 | 5.015e-07 | 4.438e-07
x2 = 0.3008 | 5.905e-07 | 5.064e-07 | 4.483e-07
x2 = 0.3993 | 5.97e-07 | 5.134e-07 | 4.536e-07
x2 = 0.4999 | 6.054e-07 | 5.215e-07 | 4.599e-07
x2 = 0.5973 | 6.156e-07 | 5.306e-07 | 4.663e-07
x2 = 0.6994 | 6.268e-07 | 5.403e-07 | 4.733e-07
x2 = 0.8006 | 6.397e-07 | 5.516e-07 | 4.809e-07
x2 = 0.9002 | 6.538e-07 | 5.633e-07 | 4.894e-07
x2 = 0.9491 | 6.615e-07 | 5.692e-07 | 4.94e-07

CCCCCl [1-chlorobutane]
[1]
Settings | kinematic viscosity [m2/s]
283.15 K | 5.564e-07
298.15 K | 4.785e-07
313.15 K | 4.216e-07

CCCCCl [1-chlorobutane] + CCCCCC
kinematic viscosity [m2/s], [2]
Settings | 283.15 K | 298.15 K | 313.15 K
x1 = 0.0508 | 5.501e-07 | 4.74e-07 | 4.182e-07
x1 = 0.0992 | 5.449e-07 | 4.701e-07 | 4.169e-07
x1 = 0.1972 | 5.351e-07 | 4.634e-07 | 4.118e-07
x1 = 0.2966 | 5.269e-07 | 4.577e-07 | 4.08e-07
x1 = 0.3976 | 5.198e-07 | 4.531e-07 | 4.048e-07
x1 = 0.5009 | 5.145e-07 | 4.495e-07 | 4.027e-07
x1 = 0.6006 | 5.112e-07 | 4.467e-07 | 4.011e-07
x1 = 0.6982 | 5.092e-07 | 4.451e-07 | 4.005e-07
x1 = 0.7972 | 5.082e-07 | 4.455e-07 | 4.01e-07
x1 = 0.8979 | 5.094e-07 | 4.464e-07 | 4.023e-07
x1 = 0.9472 | 5.103e-07 | 4.474e-07 | 4.027e-07

CCCCCl [1-chlorobutane] + CCCCCCC
kinematic viscosity [m2/s], [2]
Settings | 283.15 K | 298.15 K | 313.15 K
x1 = 0.0508 | 5.595e-07 | 4.824e-07 | 4.248e-07
x1 = 0.1017 | 5.632e-07 | 4.857e-07 | 4.278e-07
x1 = 0.1981 | 5.703e-07 | 4.927e-07 | 4.335e-07
x1 = 0.2989 | 5.788e-07 | 5e-07 | 4.396e-07
x1 = 0.4022 | 5.882e-07 | 5.088e-07 | 4.471e-07
x1 = 0.4998 | 5.984e-07 | 5.177e-07 | 4.545e-07
x1 = 0.6008 | 6.102e-07 | 5.278e-07 | 4.624e-07
x1 = 0.6989 | 6.229e-07 | 5.386e-07 | 4.705e-07
x1 = 0.7985 | 6.367e-07 | 5.501e-07 | 4.792e-07
x1 = 0.898 | 6.52e-07 | 5.626e-07 | 4.882e-07
x1 = 0.9498 | 6.608e-07 | 5.692e-07 | 4.935e-07

CCC(C)(C)C [2,2-dimethylbutane]
[1]
Settings | kinematic viscosity [m2/s]
283.15 K | 6.234e-07
298.15 K | 5.206e-07
313.15 K | 4.579e-07

CCC(C)(C)C [2,2-dimethylbutane] + CC(C)(C)Cl
kinematic viscosity [m2/s], [2]
Settings | 283.15 K | 298.15 K | 313.15 K
x1 = 0.0499 | 6.937e-07 | 5.657e-07 | 4.748e-07
x1 = 0.1017 | 6.864e-07 | 5.592e-07 | 4.715e-07
x1 = 0.1983 | 6.729e-07 | 5.493e-07 | 4.664e-07
x1 = 0.3004 | 6.6e-07 | 5.405e-07 | 4.607e-07
x1 = 0.399 | 6.491e-07 | 5.333e-07 | 4.568e-07
x1 = 0.4989 | 6.399e-07 | 5.275e-07 | 4.538e-07
x1 = 0.6017 | 6.32e-07 | 5.225e-07 | 4.522e-07
x1 = 0.7034 | 6.27e-07 | 5.2e-07 | 4.518e-07
x1 = 0.8 | 6.228e-07 | 5.18e-07 | 4.519e-07
x1 = 0.8967 | 6.221e-07 | 5.184e-07 | 4.541e-07
x1 = 0.9504 | 6.224e-07 | 5.19e-07 | 4.556e-07

CCC(C)(C)C [2,2-dimethylbutane] + CC(C)CCl
kinematic viscosity [m2/s], [2]
Settings | 283.15 K | 298.15 K | 313.15 K
x1 = 0.0487 | 5.82e-07 | 4.94e-07 | 4.366e-07
x1 = 0.0994 | 5.816e-07 | 4.941e-07 | 4.365e-07
x1 = 0.1995 | 5.814e-07 | 4.939e-07 | 4.362e-07
x1 = 0.2985 | 5.821e-07 | 4.939e-07 | 4.363e-07
x1 = 0.3993 | 5.834e-07 | 4.942e-07 | 4.366e-07
x1 = 0.5018 | 5.866e-07 | 4.958e-07 | 4.38e-07
x1 = 0.6011 | 5.899e-07 | 4.986e-07 | 4.402e-07
x1 = 0.6985 | 5.953e-07 | 5.025e-07 | 4.439e-07
x1 = 0.7995 | 6.024e-07 | 5.071e-07 | 4.476e-07
x1 = 0.8988 | 6.115e-07 | 5.13e-07 | 4.524e-07
x1 = 0.9479 | 6.158e-07 | 5.163e-07 | 4.542e-07

CCC(C)(C)C [2,2-dimethylbutane] + CCC(C)Cl
kinematic viscosity [m2/s], [2]
Settings | 283.15 K | 298.15 K | 313.15 K
x1 = 0.0448 | 5.266e-07 | 4.621e-07 | 4.07e-07
x1 = 0.0993 | 5.3e-07 | 4.64e-07 | 4.086e-07
x1 = 0.2003 | 5.356e-07 | 4.679e-07 | 4.12e-07
x1 = 0.301 | 5.421e-07 | 4.719e-07 | 4.157e-07
x1 = 0.3993 | 5.494e-07 | 4.761e-07 | 4.2e-07
x1 = 0.4989 | 5.579e-07 | 4.815e-07 | 4.251e-07
x1 = 0.6039 | 5.683e-07 | 4.88e-07 | 4.309e-07
x1 = 0.7002 | 5.793e-07 | 4.949e-07 | 4.368e-07
x1 = 0.8033 | 5.935e-07 | 5.036e-07 | 4.438e-07
x1 = 0.9028 | 6.07e-07 | 5.122e-07 | 4.508e-07
x1 = 0.9518 | 6.147e-07 | 5.165e-07 | 4.546e-07
